Laboratory results as given in the Deep4Chem optical property database.

assay: solvent given as SMILES; conditions: in C1CCCCC1

emission maximum | SMILES
400 nm | COc1ccc(/C=C(\c2ccccc2)c2nc3ccccc3s2)cc1
636 nm | CC1=[N+]2C(=C(NCc3ccccc3)c3ccc(C)n3[B-]2(F)F)C=C1c1cc2n(c1)[B-](F)(F)[N+]1=CC=CC1=C2c1c(C)cc(C)cc1C
423 nm | CN(C)c1ccc(C#Cc2nc(-c3ccccc3)nc3ccccc23)cc1
630 nm | C(#Cc1cccc2cc(-c3ccccc3)c3cc(-c4cc[b-]5c(c4)c(-c4ccccc4)cc4cccc(C#Cc6ccccc6)[n+]54)cc[b-]3[n+]12)c1ccccc1
479 nm | Oc1ccccc1-c1nc(-c2ccccc2)c2ccccn12

SMILES | emission maximum
CN(C)c1ccc(N(C)C)cc1 | 394.48 nm
CN(C)c1ccc(-c2c(/C=C3/C=Cc4ccccc4N3C)c(=O)c2=O)cc1 | 427 nm
Fc1ccc(-c2nc3n(c2-c2ccncc2)CCS3)cc1 | 397.5 nm

same assay, conditions: in C1CCOC1

SMILES | emission maximum
C1=C(c2ccccc2)C(c2ccccc2)C(c2ccccc2)=C1 | 385 nm
CCCCC1(c2ccccc2)Nc2c(-c3ccc(N(c4ccccc4)c4ccccc4)cc3)ccc(-c3ccc(N(c4ccccc4)c4ccccc4)cc3)c2N=C1c1ccccc1 (centres undefined) | 554 nm
CCN(CC)c1ccc(/C=C/c2ccc(-c3ccc(/C=C/c4ccc(N(CC)CC)cc4)s3)s2)cc1 | 544 nm
CN(C)c1ccc(C#Cc2nc(-c3ccccc3)nc3ccccc23)cc1 | 549 nm
Fc1ccc(-c2nc3n(c2-c2ccncc2)CCS3)cc1 | 414 nm
Cc1cc(=O)oc2cc3c4ccccc4c4ccccc4c3cc12 | 410 nm
CCOC(=O)C1=CNC=C(C(=O)OCC)C1c1ccccc1 | 412 nm
CCCCCCc1ccc2c3c(ccc2c1)O[B-](F)(F)[N+](c1cc([N+]2=Cc4c(ccc5cc(CCCCCC)ccc45)O[B-]2(F)F)cc([N+]2=Cc4c(ccc5cc(CCCCCC)ccc45)O[B-]2(F)F)c1)=C3 | 490 nm

same assay, conditions: in C1COCCO1

SMILES | emission maximum
Fc1ccc(-c2nc3n(c2-c2ccncc2)CCS3)cc1 | 412 nm

same assay, conditions: in CC#N

SMILES | emission maximum
N#Cc1nn(-c2ccccc2)nc1N1CCCC1 | 423 nm
Oc1ccccc1/C=N/CC/N=C/c1ccccc1O | 461 nm
CCOC(=O)CN1C(=O)C2=C(c3ccc(N4CCCCC4)cc3)N(CC(=O)OCC)C(=O)C2=C1c1ccc(N2CCCCC2)cc1 | 590 nm
CCCCC1(c2ccccc2)Nc2c(-c3ccc(N(c4ccccc4)c4ccccc4)cc3)ccc(-c3ccc(N(c4ccccc4)c4ccccc4)cc3)c2N=C1c1ccccc1 (centres undefined) | 567 nm
CCN(CC)c1ccc(/C=C/c2ccc(-c3ccc(/C=C/c4ccc(N(CC)CC)cc4)s3)s2)cc1 | 577 nm
CN(C)c1ccc(C#Cc2nc(-c3ccccc3)nc3ccccc23)cc1 | 570 nm
Fc1ccc(-c2nc3n(c2-c2ccncc2)CCS3)cc1 | 420 nm
Cc1cc(=O)oc2cc3c4ccccc4c4ccccc4c3cc12 | 419 nm
N#CSC1=CC2=C(c3c(Cl)cccc3Cl)c3cc(SC#N)c(NCc4ccccc4)n3[B-](F)(F)[N+]2=C1NCc1ccccc1 | 648 nm
Oc1ccccc1-c1nc(-c2ccccc2)c2ccccn12 | 480 nm
CCCCCCc1ccc2c3c(ccc2c1)O[B-](F)(F)[N+](c1cc([N+]2=Cc4c(ccc5cc(CCCCCC)ccc45)O[B-]2(F)F)cc([N+]2=Cc4c(ccc5cc(CCCCCC)ccc45)O[B-]2(F)F)c1)=C3 | 495 nm

same assay, conditions: in CC(C)(C)O

SMILES | emission maximum
Fc1ccc(-c2nc3n(c2-c2ccncc2)CCS3)cc1 | 420 nm

same assay, conditions: in CC(C)=O

SMILES | emission maximum
CCN(CC)c1ccc(/C=C/c2ccc(-c3ccc(/C=C/c4ccc(N(CC)CC)cc4)s3)s2)cc1 | 570 nm
Fc1ccc(-c2nc3n(c2-c2ccncc2)CCS3)cc1 | 418 nm

same assay, conditions: in CC(C)O

SMILES | emission maximum
Fc1ccc(-c2nc3n(c2-c2ccncc2)CCS3)cc1 | 436 nm

same assay, conditions: in CCCCCC

SMILES | emission maximum
CCCCC1(c2ccccc2)Nc2c(-c3ccc(N(c4ccccc4)c4ccccc4)cc3)ccc(-c3ccc(N(c4ccccc4)c4ccccc4)cc3)c2N=C1c1ccccc1 (centres undefined) | 521 nm
N#CSC1=CC2=C(c3c(Cl)cccc3Cl)c3cc(SC#N)c(NCc4ccccc4)n3[B-](F)(F)[N+]2=C1NCc1ccccc1 | 655 nm

same assay, conditions: in CCO

emission maximum | SMILES
630 nm | N#CC(C#N)=Cc1ccc(-c2cccc(-c3nc4ccccc4s3)c2O)s1
417 nm | O=C(O)CCNc1cccc2ccccc12

SMILES | emission maximum
Fc1ccc(-c2nc3n(c2-c2ccncc2)CCS3)cc1 | 438 nm

same assay, conditions: in CCOC(C)=O

emission maximum | SMILES
700 nm | CC1=[N+]2C(=C(NCc3ccccc3)c3ccc(C)n3[B-]2(F)F)C=C1c1cc2n(c1)[B-](F)(F)[N+]1=CC=CC1=C2c1c(C)cc(C)cc1C
654 nm | N#CSC1=CC2=C(c3c(Cl)cccc3Cl)c3cc(SC#N)c(NCc4ccccc4)n3[B-](F)(F)[N+]2=C1NCc1ccccc1

SMILES | emission maximum
Fc1ccc(-c2nc3n(c2-c2ccncc2)CCS3)cc1 | 414 nm

same assay, conditions: in CN(C)C=O

SMILES | emission maximum
S=c1[nH]nc(-c2ccc(/C=C/c3ccc(-c4n[nH]c(=S)o4)cc3)cc2)o1 | 401 nm
CCCCC1(c2ccccc2)Nc2c(-c3ccc(N(c4ccccc4)c4ccccc4)cc3)ccc(-c3ccc(N(c4ccccc4)c4ccccc4)cc3)c2N=C1c1ccccc1 (centres undefined) | 578 nm
CCN(CC)c1ccc(/C=C/c2ccc(-c3ccc(/C=C/c4ccc(N(CC)CC)cc4)s3)s2)cc1 | 586 nm
Fc1ccc(-c2nc3n(c2-c2ccncc2)CCS3)cc1 | 426 nm

same assay, conditions: in CNC=O

SMILES | emission maximum
Fc1ccc(-c2nc3n(c2-c2ccncc2)CCS3)cc1 | 446 nm

same assay, conditions: in CO

emission maximum | SMILES
663 nm | CCN1C(=CC2=C([O-])C(=Cc3sc4ccccc4[n+]3CC)C2=O)Sc2ccccc21
420 nm | COc1ccc(/C=C(\c2ccccc2)c2nc3ccccc3s2)cc1
796 nm | CC1(C)C(/C=C/C2=C(Oc3ccc(CCN=C=S)cc3I)C(=C/C=C3/N(CCCS(=O)(=O)[O-])c4ccccc4C3(C)C)/CCC2)=[N+](CCCS(=O)(=O)[O-])c2ccccc21

SMILES | emission maximum
Fc1ccc(-c2nc3n(c2-c2ccncc2)CCS3)cc1 | 439 nm
